Data on one compound can be found in patent publication US20140037719A1, “STABILIZED PHARMACEUTICAL FORMULATIONS OF A POTENT HCV INHIBITOR” (Robert Majeska, priority 2012, published 2014).

This data set in a line: Ames test / genotoxicity of degradation product. The format is cell-based.

`C=C[C@@H]1C[C@]1(N)C(=O)O` [Compound X]: the Ames result was “Ames positive” and the genotoxicity entry was “genotoxic”.
